| melting point | SMILES |
| --- | --- |
| 133 to 134 °C | Cc1c(-c2nc(-c3c(F)cccc3Cl)nn2C)csc1Br |
| 293 to 295 °C | O=C1CCC(N2Cc3cc(CNC(=O)c4cccc(Cl)c4)ccc3C2=O)C(=O)N1 (stereo unspecified) |
| 120 to 123 °C | COC(=O)[C@H](Cc1ccc([N+](=O)[O-])cc1)NC(=O)c1c(C)cccc1Cl |
| 134 °C | CC#CC1CCC(c2ccc(C3CCC(CCC)CC3)cc2)CC1 (stereo unspecified) |
| 83 to 86 °C | O=C1c2ccccc2S(=O)(=O)N1CCCOc1ccccc1 |
| 220 to 222 °C | CC(C)(C)OCc1cccc(-c2ccc3nc(-c4cccnc4)cn3c2)c1 |
| 101 to 103 °C | CC(C)c1nc(CCOCc2ccccc2)n(C)c1Sc1cc(Cl)cc(Cl)c1 |
| 148 to 149 °C | COc1ccc2[nH]c(-c3ccccc3)cc2c1 |
| 196 °C | C/C=C/CC(=O)N[C@H]1CC[C@H](CCN2CCC(c3cccc4c3CCO4)CC2)CC1 |
| 168 °C | Cc1ccc(-c2ssc(=S)c2C)nn1 |
| 110 to 112 °C | COC(=O)c1c(Cl)cc(Cl)c2cc(Cl)ccc12 |
| 78 °C | CNC(=S)NS(=O)(=O)c1cc(CCNC(=O)C=Cc2cccs2)ccc1OCC1CCCO1 (stereo unspecified) |
| 157 to 158 °C | CNC(=O)n1nc(Oc2ccc([N+](=O)[O-])cc2C(F)(F)F)c(Cl)c1C |
| 218 to 219 °C | CCNc1nc(-c2ccc(F)cc2)c(-c2ccc(S(C)(=O)=O)cc2)s1 |
| 130 to 132 °C | O=c1ccc(-c2c(-c3ccccc3)nn3ccccc23)nn1Cc1nccs1 |
| 182 °C | O=C(O)c1nn(-c2ccc(Cl)cc2Cl)c(-c2ccc(Cl)cc2)c1COCCO |
| 99 to 101 °C | Clc1ccc(-c2nc3n(c2Cl)CCCC3)c(Cl)c1 |
| 127 to 130 °C | CN(CCCO)c1ccnc(CSc2nc3ccccc3[nH]2)c1Cl |
| 93 to 93.5 °C | O=C(c1cc(Cl)ccc1NC(=O)C(Cl)(Cl)Cl)C1CCCCC1 |
| 155 to 158 °C | COC(=O)[C@H](Cc1ccc(NC(=O)c2c(Cl)cccc2Cl)cc1)NC(=O)c1ccc(-n2nnnc2NCc2cccc(O)c2)cc1Cl |
| 155 to 157 °C | CCCCCCCNC(=O)Nc1ccccc1C(=O)Nc1ccc(CCCCCCC)cc1 |
| 113 to 116 °C | COc1ccc2[nH]c(SC/C=C(\C)CCC=C(C)C)nc2c1 |
| 132 to 134 °C | O=[N+]([O-])c1c(Br)nn(CCO)c1NCCO |
| 132 to 134 °C | Oc1ccc(-c2cccc(F)c2F)cc1 |
| 87 to 89 °C | Cc1ccc(S(=O)(=O)OCC2CCc3cc(Br)ccc3C2)cc1 (stereo unspecified) |

| melting point | SMILES |
| --- | --- |
| 186 to 187 °C | N#CCCNC(=O)c1n[nH]cc1NC(=O)c1ccccc1 |
| 142 to 143 °C | COc1ccc(Cn2c(=O)ccc3cnc(N4CCC[C@H]4CO)nc32)cc1Cl |
| 245 to 247 °C | O=C(O)Cc1sc(S)nc1-c1ccc(Cl)cc1 |
| 161 °C | N#CC1(C#N)C2C=CC(C2)C1(Cl)Cl (stereo unspecified) |
| 148 °C | Nc1ccc(-n2cnc(-c3ccc(C(F)(F)F)cc3)n2)cc1Cl |
| 134 to 135 °C | COC(=O)c1ccc(Cc2cn(C)c3ccc(NC(=O)OC4CCCC4)cc23)c(OC)c1 |
| 135 to 137 °C | COc1ccc(Cl)c(C(=O)NCCc2ccc(S(=O)(=O)NC(=O)c3ccc(C(=O)NCCO)nc3)cc2)c1 |
| 93 to 94 °C | CCOc1nn(-c2ccc(C(F)(F)F)cn2)cc1CCCOc1ccc(CCC(=O)O)cc1OC(C)C |
| 122 °C | Brc1ccc2[nH]cc(Cc3cccnc3)c2c1 |
| 236 to 237 °C | NC(=O)c1ccc(N)nc1F |
| 205 to 208 °C | Fc1ccc(-c2ccc3c(c2)C2(CCCCC2)C(=NOCc2ccccc2)N3)cc1 |
| 94 to 95 °C | Cc1cccc(COc2cccc(OCc3ccc4cc(F)c(F)cc4n3)c2)c1OCC(=O)O |
| 217 °C | COc1ccc(CCNC(=O)CC(NC(=O)CCNC(=O)c2ccc(C(=N)N)cc2)C(=O)O)cc1 (stereo unspecified) |
| 111 to 112 °C | CCOc1nc2c(nc1C(=O)N1CCN(C)CC1)c(C)nn2CC |
| 204 to 205 °C | O=C(Nc1ccc(N2CCCC2)nc1)c1cc2ccc(C(F)(F)F)nc2n1Cc1cccc(F)c1 |
| > 300 °C | CCOC(=O)c1cccc2c(=O)cc(-c3cccc(OCc4ccc5ccccc5n4)c3)oc12 |
| 127 to 129 °C | CC(=O)C1CCC2C3CCC4CC=CCC4(C)C3C(OC(=O)CI)CC12C (stereo unspecified) |
| 233 to 235 °C | COc1c(N2CC(=NO)C3(CC3)C2)c(F)cc2c(=O)c(C(=O)O)cn(C3CC3)c12 |
| 116 to 121 °C | COC(N)=CC(=NC#N)OC |
| 189 to 190 °C | NC(=O)c1nnn(Cc2ccccc2F)c1N |
| 97.5 to 99 °C | Cc1cc(C=O)ccc1C(O)c1cccnc1 (stereo unspecified) |
| 75 to 77 °C | Cc1nnc(C(=O)CCCCCCOc2ccccc2)o1 |
| > 255 °C | NCC1(Cc2ccc(CC(=O)O)cc2)CCC1 |
| 138 to 140 °C | COc1ccc(C(C)C)cc1-c1cc(C(=O)NCCc2ccccc2)c(OCc2ccccc2)cc1OCc1ccccc1 |
| 232 °C | Cc1[nH]c(=O)cnc1-c1ccc(NC(=O)OCc2ccccc2)cc1 |

| melting point | SMILES |
| --- | --- |
| 189 to 190 °C | O=C(NCC1CCCCCC1)c1cc(-c2ccc(Cl)c(C(=O)O)n2)ccc1Cl |
| 301 °C | CC(=O)Nc1nc(-c2cc(Cl)nc(Cl)c2)cs1 |
| 127 to 129 °C | Cc1ccccc1C(=O)c1ccc(Nc2ccccc2NC(=O)CO)cc1Cl |
| 80 to 82 °C | CCOC(=O)C(C)N1C(=O)C(C)Oc2c(N3CCOCC3)nc(C)nc21 (stereo unspecified) |
| 150 °C | O=C(Nc1ccc2[nH]ncc2c1)OC(c1cccc(C(=O)Nc2ccccc2)c1)[C@@H]1CCCCN1 (stereo partly specified) |
| 196 to 198 °C | CN(C)NC(=O)N(O)C1c2ccccc2Oc2ccccc21 |
| 204 to 205 °C | COC(=O)c1sc2cc(C(F)(F)F)ccc2c1NC(C)=O |
| 204 to 205 °C | CCCC(=O)NCC1Cc2ccc(-c3ccc(=O)[nH]n3)cc2C1 (stereo unspecified) |
| 174 to 175 °C | CCCCCCC(C(=O)OCC)c1ccc(NC(=O)C2c3ccccc3-c3ccccc32)cc1 (stereo unspecified) |
| 158 to 160 °C | O=S(=O)(NCCO)c1ccc(Nc2nc(OCC3CCCCC3)c3nc[nH]c3n2)cc1 |
| 118 to 120 °C | O=C(Nc1ccc2c(c1)OC=C1CN(C(=O)OCc3ccccc3)C=CN12)OCc1ccccc1 |
| 210 to 211 °C | C[C@@H](NC(=O)c1ccc(-c2ccc(C#N)cc2)s1)[C@](O)(Cn1cncn1)c1ccc(F)cc1F |
| 95 to 97 °C | CCC(CC)N(Cc1ccc(C(=O)OC)cc1)S(=O)(=O)c1ccc(Cl)cc1 |
| 178 to 181 °C | Cc1cccc(Nc2ncnc3cnc(NC4CCN(C#N)CC4)nc23)c1 |
| 98 to 99 °C | CCC(=O)C(=Cc1ccccc1)c1cc(C)cs1 |
| 238 to 242 °C | Cc1cn(C2CC(O)C(C#N)(CO)O2)c(=O)[nH]c1=O (stereo unspecified) |
| 157 to 158 °C | O=C1NCC=NN1c1ccc(C(CCl)c2ccc(Cl)cc2)c(C(F)(F)F)c1 (stereo unspecified) |
| 102 to 106 °C | CC(=O)c1cc2c(s1)C(N1CCCC1=O)C(O)C(C)(C)O2 (stereo unspecified) |
| 109 °C | CC(C)c1nn(C(=O)NC2CCCC2)c(=O)n1N |
| 99 °C | CCCCCC1CCC(c2ccc3c(c2F)C(F)(F)Oc2c-3ccc(OCCCC)c2F)CC1 (stereo unspecified) |
| 252 to 254 °C | CNC(=O)c1cccc(CNc2n[nH]c3ncnc(Nc4cccc(Cl)c4)c23)c1 |
| 150 to 152 °C | COCCOCc1c(CN(C)CC(O)c2ccccn2)sc2c(=O)c(C(=O)NCc3ccc(Cl)cc3)cn(C)c12 (stereo unspecified) |
| 182 to 183 °C | CC(=O)Nc1ccc(I)cc1C |
| 105 to 106 °C | COC(=O)c1cccc(-c2nc(COc3ccc(CO)cc3)c(C)o2)c1 |
| 169 to 170 °C | CC1=C2CCN(CCC(N)=O)CC2c2ccccc21 (stereo unspecified) |

| melting point | SMILES |
| --- | --- |
| 115 to 117 °C | CCOC(=O)ONC(=N)c1cc(C(C)(C)C)c(OCOCCOC)c(C(C)(C)C)c1 |
| 203 °C | CCOC(=O)NC(=O)C1c2ccccc2Oc2ccc(Br)cc21 (racemic) |
| 221 °C | CC(=O)N1CCN=C1c1c(Cl)nc(N)nc1Cl |
| 284 to 287 °C | Cn1cc(C(=O)O)c(=O)c2cc(F)c(F)cc21 |
| 176 to 177 °C | O=C(O)c1cc(Br)no1 |
| 80 to 82 °C | CCCC[C@H](NC(=O)[C@H](CC(C)C)NC(=O)OCc1ccccc1)C(=O)CSC |
| 160 to 162 °C | COCc1c(C(=O)OC(C)C)ncc2[nH]c3cccc(-c4cccs4)c3c12 |
| 230 to 233 °C | Cn1ccnc1C(=O)c1[nH]c2ccc(Cl)cc2c1CC(=O)O |
| 132 to 133 °C | C1=C(c2ccc3c(c2)OCCO3)CCC(N2CCN(Cc3ccccc3)CC2)C1 (stereo unspecified) |
| 217 to 220 °C | CSc1sc(-c2ccccn2)c2c1C(=O)CC(C)(C)C2 |
| 119 to 120 °C | Cc1oc(C=Cc2cccc(Cl)c2)nc1CC#N |
| 158 to 162 °C | Cc1nc2c(OCc3cc(N(C)S(C)(=O)=O)ccc3Cl)cccn2c1Br |
| 162 °C | C=COC(=O)N1CC2C(=O)C=CC(c3ccccc3)(c3ccccc3)C2C1 (stereo unspecified) |
| 50 to 52 °C | Cc1oc2cccc(OCC#N)c2c1C |
| 166 to 167 °C | O=C(O)CCc1cn(Cc2ccc(OCc3noc(-c4ccccc4)n3)cc2)nc1-c1ccccc1 |
| 165 to 167 °C | N#Cc1cc(C(=O)NN2CCOCC2)ccc1OCC(=O)Nc1ccc(Cl)cn1 |
| 287 to 289 °C | Cc1c(-c2ccccc2)oc2c(C(=O)O)cc(Br)cc2c1=O |
| 69 to 72 °C | N#Cc1ccc(CN2C(=O)C3(COc4cc5c(cc43)OCCO5)c3ccccc32)cc1 (stereo unspecified) |
| 145 to 149 °C | CC(C)C1(C)NC(c2ncccc2CO)=NC1=O (stereo unspecified) |
| 103 °C | Cc1ccc(S(=O)(=O)Oc2ccc(S(=O)(=O)C3=C(C(C)C)OCC3)cc2)cc1 |
| 134 to 135 °C | CCN1CCc2nc(Nc3cc(-c4cc(F)cc(C5NCCc6c5sc5c6CC(C)(C)C5)c4CO)cn(C)c3=O)ccc2C1 (stereo unspecified) |
| 138 to 140 °C | COc1ccc(C(=O)c2cccc(CC(=O)O)c2)cc1 |
| 87 °C | CCCCCCCCC#CCC#CCC#CCCCC(=O)NCC(O)CO (stereo unspecified) |

| SMILES | melting point |
| --- | --- |
| CCN(CC)C(=O)c1ccc(/C=C(\C)c2ccc3c(c2)C(C)(C)CCC3(C)C)cc1 | 111 to 112 °C |
| NC(=O)c1ncn2c1[C@@H]1CCCN1C(=O)c1c-2ccc(F)c1F | 221 to 224 °C |
| COc1ccc(CBr)c(CBr)c1 | 48 to 50 °C |

From a melting point compilation (Tetko et al.; mined from patent text by program, amines drawn as free bases though some values may be those of a salt)
